The subject of one series is p38α. Also on record: method as in earlier work. The settings on record: cited from earlier work.
For series [1], the system named is BRAF^V600E. Also on record: method as in earlier work. To be noted: cited from earlier work.
A further series relates to four cancer cell lines. Also on record: method as in PMID 35667253. To be noted: read-out: GI50 against the tested four cancer cell lines; cited from earlier work.
In series [2] the target is T1, EGFR (Homo sapiens, UniProt P00533).
T1 construct: cytoplasmic domain (EGFR -CD, amino acids 645–1186); His6 (N); made in house; host or cells: Sf-9 insect cells (baculovirus, pBlueBacHis2B / pFASTBacHTc)
Also on record: method as in PMID 35667253. To be noted: cited from earlier work.

The next series deals with CDK2. Also on record: method as in PMID 35667253. To be noted: cited from earlier work.
The test system of a further series is c-Met. Also on record: method as in PMID 35667253. The settings on record: cited from earlier work.
Series [3] can be described thus: MTT cell viability assay on normal mammary epithelial cells. The class given is cell-based. The settings on record: human, MCF-10A mammary epithelial cells, MCF-10A normal cells, 4 days incubation. As to the method: A human mammary gland epithelial (MCF-10A) normal cell line was used to perform the viability test. The viability of compounds VIa-k was determined using the MTT assay after 4 days of incubation with MCF-10A cells[26]^,[27].
The MTT assay was used to assess how the synthetic compounds impacted the viability of mammary epithelial cells (MCF-10A)[26]^,[27]. Appendix A. […]
4.2. Biological evaluation
4.2.1. Cytotoxic activity using MTT Assay and evaluation of IC50
MTT assay was carried out to study the effect of compounds on mammary epithelial cells (MCF-10A)26,27. The medium in which cells were propagated contained Dulbecco's modified Eagle's medium (DMEM)/ Ham's F-12 medium (1:1) supplemented with epidermal growth factor (20 ng/mL), hydrocortisone (500 ng/mL), insulin (10 μg/mL), 2 mM glutamine and 10% foetal calf serum. After every 2-3 days, the cells were passaged using trypsin ethylenediamine tetra acetic acid (EDTA). The cells were seeded at a density of 10^4 cells mL-1 in flat-bottomed culture plates containing 96 wells each. […]
A single compound was designated with four wells followed by incubation of plates for 96h at 37°C. After incubation, medium was removed completely from the plates followed by addition of MTT (0.4 mg/mL in medium) to each well and subsequent incubation of plates for 3h. MTT (along with the medium) was removed and DMSO (150μL) was added to each well of the culture plates, followed by vortexing and subsequent measurement of absorbance (at 540 nm) using microplate reader. […]

For series [4], the system named is A-549 (epithelial cancer cell line). The series can be described thus: Antiproliferative MTT assay, A-549. The class given is cell-based. To be noted: Homo sapiens, A549; A-549, MTT; read-out: Antiproliferative activity IC50 ± SEM, A-549. As to the method:
(§1) The MTT assay was performed using various cell lines in accordance with previously reported procedures[28]^,[29] to investigate the antiproliferative potential of VIa-k. Refer to Appendix A. […]
(§2) added (in 200 μL medium to yield a final concentration of 0.1% v/v) to the wells of plates. A single compound was designated with four wells followed by incubation of […]
(§3) After incubation, medium was removed completely from the plates followed by addition of MTT (0.4 mg/mL in medium) to each well and subsequent incubation of plates for 3h. MTT (along with the medium) was removed and DMSO (150μL) was added to each well of the culture plates, followed by vortexing and subsequent measurement of absorbance (at 540 nm) using microplate reader. The data are shown as percentage inhibition of proliferation in comparison with controls containing 4.2.1.2. Assay for antiproliferative effect […]
(§4) The percentage cytotoxicity of compounds was calculated using the following […]
(§5) Where ATC= Absorbance of treated cells and AC= Absorbance of control. […]
(§6) used as positive control in the assay. […]

Series [5] deals with MCF-7 (breast cancer cell line). The series can be described thus: Antiproliferative MTT assay, MCF-7. To be noted: Homo sapiens, MCF7; MCF-7, MTT; read-out: Antiproliferative activity IC50 ± SEM, MCF-7. The class given is cell-based. The protocol: as §1, §2, §3, §4, §5, §6
Series [6] concerns Panc-1 (pancreatic cancer cell line). The series can be described thus: Antiproliferative MTT assay, Panc-1. The class given is cell-based. The settings on record: Homo sapiens; Panc-1, MTT; read-out: Antiproliferative activity IC50 ± SEM, Panc-1. As to the method:
as §1, §2, §3, §4, §5, §6

Series [7] concerns HT-29 (colon cancer cell line). The series can be described thus: Antiproliferative MTT assay, HT-29. The settings on record: Homo sapiens; HT-29, MTT; read-out: Antiproliferative activity IC50 ± SEM, HT-29. The class given is cell-based. The protocol: as §1, §2, §3, §4, §5, §6
In series [8] the test system is four human cancer cell lines (Panc-1, MCF-7, HT-29, A-549). Briefly: Antiproliferative MTT assay, average (GI50) over the four cancer cell lines. The class given is cell-based. The settings on record: Homo sapiens; average of IC50 versus A-549, MCF-7, Panc-1, HT-29. The protocol: The average (GI50) versus the four cancer cell lines was chosen for ease of manipulation.
as §1, §2, §3, §4, §5, §6

Series [9] addresses T1, EGFR. The series can be described thus: EGFR-TK inhibitory assay. The settings on record: for IC50: EGFR-TK assay, read-out: EGFR inhibition IC50 ± SEM. The class given is biochemical. As to the method:
4.2.1.3. EGFR inhibitory assay
EGFR-TK assay was performed to evaluate the inhibitory potency of the tested compounds against EGFR30. Baculoviral expression vectors including pBlueBacHis2B […]
sequence comprised a sequence that encoded (His) 6. Sf-9 cells were infected for 72h for protein expression. The pellets of Sf-9 cells were solubilized in a buffer containing sodium vanadate (100 µM), aprotinin (10 µg/mL), triton (1%), HEPES buffer (50mM), ammonium molybdate (10 µM), benzamidine HCl (16 µg/mL), NaCl (10 mM), leupeptin (10 µg/mL) and pepstatin (10 µg/mL) at 0°C for 20 min at pH 7.4, followed by centrifugation for 20 min. To eliminate the non-specifically bound material, a Ni-NTA super flow packed column was used to pass through and wash the crude extract supernatant first with 10 mM and then with 100 mM imidazole. […]
NaCl (50 mM), HEPES (20 mM), glycerol (10%) and 1 µg/mL each of aprotinin, leupeptin and pepstatin for 120 min. The purification was performed either at 4 °C or on ice. To record autophosphorylation level, EGFR kinase assay was carried out on the basis of DELFIA/Time-Resolved Fluorometry. The compounds were first dissolved in DMSO […]
pH 7.4. Each compound (10 µL) was incubated with recombinant enzyme (10 µL, 5 ng for EGFR, 1:80 dilution in 100 mM HEPES) for 10 min at 25 °C, subsequent to the addition of 5X buffer (10 µL, containing 2 mM MnCl2, 100 µM Na3VO4, 20 mM HEPES and 1 mM DTT) and ATP-MgCl2 (20 µL, containing 0.1 mM ATP and 50 mM MgCl 2) and incubation for 1h. The negative and positive controls were included in each plate by the incuba tion of enzyme either with or without ATP -MgCl2. The liquid was removed after incubation and the plates were washed thrice using wash buffer. Europium -tagged antiphosphotyrosine antibody (75 µL, 400 ng) was added to each well followed by incubation of 1h a nd then washing of the plates using buffer. The enhancement solution was added to each well and the signal was recorded at excitation and emission […]
The autophosphorylation percentage inhibition by compounds was calculated using the following equation: […]
Using the curves of percentage inhibition of eight concentrations of each compound, IC 50

The target of series [10] is T2, BRAF^V600E (Mus musculus, UniProt P28028, V585E).
T2 construct: Mouse full-length GST-tagged BRAFV600E; GST; purchased Invitrogen PV3849
The series can be described thus: BRAF V600E kinase assay. The class given is biochemical. The settings on record: read-out: BRAF^V600E inhibition IC50 ± SEM. The protocol: An in vitro study was conducted to evaluate the anti-BRAF^V600E of VIc, VIf, VIg, VIi, and VIk[31]. […] An in vitro study[31] was conducted to evaluate the anti-BRAF^V600E of VIc, VIf, VIg, VIi, and Vik. See Appendix A.
4.2.1.4. BRAF kinase assay
V600E mutant BRAF kinase assay was performed to investigate the activity of the most […]
Mouse full-length GST-tagged BRAFV600E (7.5 ng, Invitrogen, PV3849) was pre-incubated with drug (1 µL) and assay dilution buffer (4 µL) for 60 min at 25 °C. In assay dilution buffer, a solution (5 µL) containing MgCl 2 (30 mM), ATP (200 µM), recombinant human full length (200 ng) […] N-terminal His-tagged MEK1 (Invitrogen) was added to start the assay, subsequent to incubation for 25 min at 25 °C. The assay was stopped using 5X protein denaturing buffer (LDS) solution (5 µL).
To further denature the protein, heat (70° C) was applied for 5 min.
NuPage gel plates (Invitrogen) were used to carry out electrophoresis (at 200 V). 10 µL of each reaction was loaded into the precast plates and electrophoresis was allowed to proceed. After completion of electrophoresis, the front part of the precast gel plate (holding hot ATP) was cut and afterw ards cast-off. The dried gel was developed using a […]
that containing no inhibitor served as positive control. […]

The next series addresses Human CDK2/A2 (Homo sapiens, UniProt P24941). The series can be described thus: CDK2 inhibitory assay.

Read-outs that look alike come from different tables or passages of the source.

T1 sequence (P00533 669-1210): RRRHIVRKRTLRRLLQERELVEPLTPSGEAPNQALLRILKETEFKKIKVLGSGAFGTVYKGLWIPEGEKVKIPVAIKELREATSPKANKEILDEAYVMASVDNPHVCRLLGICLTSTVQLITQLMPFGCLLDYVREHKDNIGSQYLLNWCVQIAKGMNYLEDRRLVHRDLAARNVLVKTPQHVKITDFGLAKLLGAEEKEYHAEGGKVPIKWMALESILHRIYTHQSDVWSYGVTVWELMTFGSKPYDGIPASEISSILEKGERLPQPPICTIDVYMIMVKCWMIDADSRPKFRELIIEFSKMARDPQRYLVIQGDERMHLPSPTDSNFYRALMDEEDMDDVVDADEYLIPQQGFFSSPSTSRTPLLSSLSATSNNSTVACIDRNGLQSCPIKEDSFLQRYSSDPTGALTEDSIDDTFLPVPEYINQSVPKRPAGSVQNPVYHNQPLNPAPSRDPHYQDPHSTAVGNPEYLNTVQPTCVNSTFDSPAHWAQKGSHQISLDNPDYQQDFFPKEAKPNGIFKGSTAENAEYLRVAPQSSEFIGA
T2 sequence (P28028 whole entry V585E): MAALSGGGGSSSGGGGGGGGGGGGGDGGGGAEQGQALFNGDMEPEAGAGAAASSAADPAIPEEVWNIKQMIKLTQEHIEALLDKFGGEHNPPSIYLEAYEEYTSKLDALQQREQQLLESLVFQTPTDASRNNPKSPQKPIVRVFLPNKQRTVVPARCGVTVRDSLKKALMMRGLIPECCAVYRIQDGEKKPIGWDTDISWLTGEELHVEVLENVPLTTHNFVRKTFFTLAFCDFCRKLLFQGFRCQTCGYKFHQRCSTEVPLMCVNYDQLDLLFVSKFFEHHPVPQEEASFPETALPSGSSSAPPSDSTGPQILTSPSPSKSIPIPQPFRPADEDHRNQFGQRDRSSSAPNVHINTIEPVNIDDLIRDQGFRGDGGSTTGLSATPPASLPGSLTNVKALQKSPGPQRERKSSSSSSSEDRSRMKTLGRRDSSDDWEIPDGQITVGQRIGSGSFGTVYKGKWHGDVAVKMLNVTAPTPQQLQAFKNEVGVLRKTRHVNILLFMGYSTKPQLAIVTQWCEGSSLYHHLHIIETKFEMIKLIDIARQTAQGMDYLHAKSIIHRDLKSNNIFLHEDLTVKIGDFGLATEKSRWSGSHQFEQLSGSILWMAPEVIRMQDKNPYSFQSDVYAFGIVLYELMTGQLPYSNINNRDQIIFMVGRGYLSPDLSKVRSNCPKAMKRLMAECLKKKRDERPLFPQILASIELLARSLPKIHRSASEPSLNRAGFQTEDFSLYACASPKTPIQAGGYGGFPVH
Experimental for Human CDK2/A2: Protein Kinase Assays. Human CDK2/A2 was purchased from New England Biolabs IC50 values for CDK2/A were determined according to the supplier’s instructions

Consider `CCCCCCn1c(-c2ccc(C(=O)O/N=C(\N)c3cccc4c3OCO4)cc2)nc(-c2ccccc2)c1-c1ccccc1` [Compound 4], for which the IC50 with p38α was 190 nM; with BRAF^V600E [1], 330 nM.
Take `COc1cc(OC)cc(/C(N)=N/OC(=O)c2ccc3cn[nH]c3c2)c1` [Compound 5]: the GI50 in the series on four cancer cell lines was 770 nM. Moreover, the values for the IC50 on EGFR [2], in the series with CDK2 and in the series with c-Met were 89 nM, 14 nM and 4.1 nM, respectively.
`NC(=NOC(=O)/C=C/C=C/c1ccc2c(c1)OCO2)c1cccc(Cl)c1` [VIg, N'-{[(2E,4E)-5-(2H-1,3-benzodioxol-5-yl)penta-2,4-dienoyl]oxy}-3-chlorobenzene-1-carboximidamide] had a melting point of 163 to 165 °C. This compound yielded a viability at 4 days, 50 µM in series [3] of 87%. Moreover, in [4], the IC50 amounted to 42 ± 5 nM. The IC50 in [5] came out at 47 ± 5 nM. For the same compound, in series [6], the 50% inhibitory concentration (IC50) was found to be 49 ± 5 nM. The half-inhibitory concentration (IC50) in series [7] worked out at 49 ± 5 nM. Besides, in series [8], the concentration for 50% growth inhibition (GI50) is 47 nM. Moreover, the IC50 on EGFR [9] worked out at 96 ± 6 nM. Besides, the “EGFR potency relative to erlotinib (lower)” value at EGFR [9] (ratio of IC50 values) was 1.2 fold. Moreover, the IC50 on BRAF^V600E [10] was 63 ± 6 nM. On Human CDK2/A2, the IC50 was determined as 20 ± 2 nM.
Take `COc1ccc(C(N)=NOC(=O)/C=C/C=C/c2ccc3c(c2)OCO3)cc1OC` [VIi, N'-{[(2E,4E)-5-(2H-1,3-benzodioxol-5-yl)penta-2,4-dienoyl]oxy}-3,4-dimethoxybenzene-1-carboximidamide]: the melting point fell in the range of 147 to 149 °C. The same compound had a viability at 4 days, 50 µM in [3] of 89%. Also, the IC50 in series [4] is 36 ± 4 nM. For the same compound, the IC50 in series [5] was 39 ± 3 nM. Moreover, in [6], the concentration for half-maximal inhibition (IC50) came out at 40 ± 4 nM. In addition, the IC50 in series [7] was 40 ± 4 nM. The compound also displayed a concentration for 50% growth inhibition (GI50) in series [8] of 39 nM. Besides, the IC50 at EGFR [9] came to 120 ± 10 nM. For the same compound, the IC50 at BRAF^V600E [10] was determined as 72 ± 7 nM. This compound also displayed an IC50 at Human CDK2/A2 of 17 ± 2 nM.

The values above are taken from PMC9721426, “Novel piperine-carboximidamide hybrids: design, synthesis, and antiproliferative activity via a multi-targeted inhibitory pathway” (Journal of Enzyme Inhibition and Medicinal Chemistry, 2022).
